Results taken from PMC10632520, “Structural flexibility of apolipoprotein E-derived arginine-rich peptides improves their cell penetration capability” (Scientific Reports, 2023).
Residues, ends and D or L forms follow the SMILES beside them.

Test: Channel current (electrophysiological) analysis of peptide-induced pores
Assay type: physicochemical
Details: planar DOPC bilayer, 10 µM peptide, 100 mV; pH 7.0
Method: Electrophysiological measurements were performed using a MECA 16 TC chip with an Orbit 16 TC device (Nanion Technologies GmbH, Munich, Germany) according to the manufacturer’s instructions. The MECA 16 TC chamber was filled with 200 µL of buffer solution (150 mM KCl, 10 mM MOPS, pH 7.0); 1 µL of DOPC (lipid/n-decan, 10 mg/mL) solution was added to the chamber, and planar lipid bilayers were automatically prepared using the Orbit 16TC stirrer. The peptide was then dissolved in the chamber at 10 µM (a lipid/peptide molar ratio of ~ 6 in the chamber system), and 100 mV of voltage was applied. The channel current was monitored using the Orbit 16 TC Elements Data Reader 4 v.1.0.22. The channel current signals were detected using a 4-kHz low-pass filter at a sampling frequency of 20 kHz. Analysis of the channel signals was performed using pCLAMP ver. 10.7 (Molecular Devices, CA, USA). The data obtained in this measurement are n (number of current signals): 2081 > n > 311; N (number of experiments) > 3.

CC(=O)N[C@@H](CC(C)C)C(=O)N[C@@H](CCCNC(=N)N)C(=O)N[C@@H](CCCCN)C(=O)N[C@@H](CC(C)C)C(=O)N[C@@H](CCCNC(=N)N)C(=O)N[C@@H](CCCCN)C(=O)N[C@@H](CCCNC(=N)N)C(=O)N[C@@H](CC(C)C)C(=O)N[C@@H](CC(C)C)C(=O)N[C@@H](CCCNC(=N)N)C(=O)N[C@@H](CC(C)C)C(=O)N[C@@H](Cc1c[nH]c2ccccc12)C(=O)N[C@@H](CCCCN)C(=O)N[C@@H](CC(C)C)C(=O)N[C@@H](CCCNC(=N)N)C(=O)N[C@@H](CCCCN)C(=O)N[C@@H](CCCNC(=N)N)C(N)=O [A2-17] (Ac-LRKLRKRLLRLWKLRKR-NH2)
charge flux accompanied by spike current signal: much greater for A2-17 than that for StpA2-17 or StchA2-17
